Biological target: human PAD4 (hPAD4) (Homo sapiens (Human), UniProt Q9UM07)
Assay: RFMS Human PAD4 Functional Assay 1
Assay type: biochemical
Conditions: RFMS assay 1; 5 nM hPAD4, 250 μM BAEE substrate, 50 μM calcium, 37° C.
Protocol: RFMS Human PAD4 Functional Assay 1:
Compounds were solubilized in 100% DMSO to achieve all) mM compound concentration. Compound stock solutions were stored at RT. A series of dilutions were prepared in DMSO and mixed 8 times with 20 μL mixing volume. Final top concentration of compound in the assay is 50 μM. Final assay conditions were as follows: • Reaction volume: 26 μl • Assay buffer: 25 mM hepes, pH 7.5, 5 mM NaCl, 1 mM DTT, 0.2 mg/ml BSA, 0.01% CHAPS, 50 μM Calcium, and 5 μM TPEN • Final concentrations: 5 nM hPAD4 enzyme, 250 μM BASE, and 0.5% DMSO • Total incubation time: 30 mins compound and enzyme preincubation at 37° C., 90 min enzyme/substrate reaction, 30 min reaction with phenyl glyoxal at 37° C. • Stop solution: 40 μl 5% TCA in ACN
0.13 μL of compound solution was added to 13 μL of 10 nM PAD4 in assay buffer. After 30 min 13 μl of 500 μM of BAEE was added in 25 mM hepes, pH 7.5, 5 mM NaCl, 1 mM DTT, 0.2 mg/ml BSA, 0.01% CHAPS, 50 μM Calcium, 5 μM TPEN was added and the reaction incubated for 90 min at 37° C. The enzymatic reaction was quenched by addition of 15 μl of 6.1N TCA, 100% Final Concentration is 20%, 35 μl of 8.5 mM phenyl glyoxal (final concentration 4 mM) is then added and the reaction is incubated for 30 min at 37° C.
After 30 minutes the plates are spun down to remove all precipitate. The enzyme reaction was quenched with an equal volume of methanol containing internal standard (modified citrulline). Samples were loaded onto the Rapid Fire RF300 system (Agilent) wherein they were first sipped for 1000 ms and then directly loaded to a C18 separations cartridge using a mixture of acetonitrile containing 0.01% formic acid for 3000 ms desalting. The flow rate of the mobile phase was 1.5 ml/min. Once the samples were eluted from the cartridge, a mobile phase of acetonitrile containing 0.01% formic acid was used to move the samples into the mass spectrometer for 4000 ms at a flow rate of 1.25 ml/min/Sciex API5500 triple quadrupole mass spectrometer (Applied Biosystems) equipped with ESI was used to analyze the peptidyl citrulline and internal standard ions.
MRM transition of product and internal standard were monitored at m/z 424.5 to 350.4 and m/z 293 to 247 respectively. The dwell time for each transition was set at 200 ms, and the ESI voltage was used at 5500 with a source temperature of 400° C. Extracted ion peaks for each transition were integrated using the Rapid Fire Integrator software. Peak area of analyte was normalized with internal standard.).

Sequence of human PAD4 (hPAD4) (Q9UM07 whole entry): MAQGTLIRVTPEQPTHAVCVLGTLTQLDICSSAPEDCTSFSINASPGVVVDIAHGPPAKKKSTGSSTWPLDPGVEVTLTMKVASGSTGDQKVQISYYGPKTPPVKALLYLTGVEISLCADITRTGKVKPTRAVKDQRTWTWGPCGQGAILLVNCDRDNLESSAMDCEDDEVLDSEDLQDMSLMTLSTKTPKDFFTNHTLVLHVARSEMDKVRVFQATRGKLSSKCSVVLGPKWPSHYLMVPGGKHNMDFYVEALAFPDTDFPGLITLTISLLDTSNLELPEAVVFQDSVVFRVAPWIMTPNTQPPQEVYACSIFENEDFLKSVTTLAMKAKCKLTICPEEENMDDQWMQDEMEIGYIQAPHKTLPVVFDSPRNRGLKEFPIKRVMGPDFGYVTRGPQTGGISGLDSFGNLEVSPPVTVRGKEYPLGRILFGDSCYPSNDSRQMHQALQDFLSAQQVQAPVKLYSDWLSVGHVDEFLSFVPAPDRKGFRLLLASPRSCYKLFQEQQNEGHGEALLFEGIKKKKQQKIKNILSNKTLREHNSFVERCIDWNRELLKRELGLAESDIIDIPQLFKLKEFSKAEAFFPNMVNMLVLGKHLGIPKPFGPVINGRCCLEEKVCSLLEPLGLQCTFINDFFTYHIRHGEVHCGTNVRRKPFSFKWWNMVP

SMILES | IC50 [nM]
Cc1c(-c2cc3ccc(OCC4CNC(=O)C4)nc3n2CC2CC2)nn2cc(C(=O)N3CC4CCC3[C@@H]4N)cc(F)c12 (mixture of isomers) [Example 275, 4-{[(2-{6-[(7R)-7-Amino-2-azabicyclo[2.2.1]heptane-2-carbonyl]-4-fluoro-3-methylpyrazolo[1,5-a]pyridin-2-yl}-1-(cyclopropylmethyl)-1H-pyrrolo[2,3-b]pyridin-6-yl)oxy]methyl}pyrrolidin-2-one] | 120
Cc1c(-c2cc3ccc(C(C)(O)C(F)F)nc3n2CC2CC2)nn2cc(C(=O)N3CC4CCC3[C@@H]4N)ccc12 (mixture of isomers) [Example 381, 2-(2-{6-[(7R)-7-Amino-2-azabicyclo[2.2.1]heptane-2-carbonyl]-3-methylpyrazolo[1,5-a]pyridin-2-yl}-1-(cyclopropylmethyl)-1H-pyrrolo[2,3-b]pyridin-6-yl)-1,1-difluoropropan-2-ol] | 20
Cc1c(-c2cc3ccc(C(C)(O)C(F)(F)F)nc3n2CC2CC2)nn2cc(C(=O)N3CCC[C@@H](N)C3)ccc12 (mixture of isomers) [Example 382, 2-(2-{6-[(3R)-3-Aminopiperidine-1-carbonyl]-3-methylpyrazolo[1,5-a]pyridin-2-yl}-1-(cyclopropylmethyl)-1H-pyrrolo[2,3-b]pyridin-6-yl)-1,1,1-trifluoropropan-2-ol] | 150
Cc1c(-c2cc3ccc(C(C)O)nc3n2CC2CC2)nn2cc(C(=O)N3CCC[C@@H](N)C3)ccc12 (mixture of isomers) [Example 385, 1-(2-{6-[(3R)-3-Aminopiperidine-1-carbonyl]-3-methylpyrazolo[1,5-a]pyridin-2-yl}-1-(cyclopropylmethyl)-1H-pyrrolo[2,3-b]pyridin-6-yl)ethan-1-ol] | 270
COc1cc(C(=O)N2C[C@H](N)C[C@@H](F)C2)cn2nc(-c3cc4cccc(C5CCN(C(=O)C6CC(O)(C(F)(F)F)C6)CC5)c4n3CC3CC3)c(C)c12 (mixture of isomers) [Example 399, ((3R,5R)-3-Amino-5-fluoropiperidin-1-yl)(2-(1-(cyclopropylmethyl)-7-(1-(3-hydroxy-3-(trifluoromethyl)cyclobutane-1-carbonyl)piperidin-4-yl)-1H-indol-2-yl)-4-methoxy-3-methylpyrazolo[1,5-a]pyridin-6-yl)methanone] | 50
COc1cc(C(=O)N2CCC[C@@H](N)C2)cn2nc(-c3cc4cccc(C5CCN(C(=O)C6CCCO6)CC5)c4n3CC3CC3)c(C)c12 (mixture of isomers) [Example 400, ((R)-3-Aminopiperidin-1-yl)(2-(1-(cyclopropylmethyl)-7-(1-(tetrahydrofuran-2-carbonyl)piperidin-4-yl)-1H-indol-2-yl)-4-methoxy-3-methylpyrazolo[1,5-a]pyridin-6-yl)methanone] | 660
Cc1c(-c2cc3cccc(C4CCN(C(=O)C5CC(O)(C(F)(F)F)C5)CC4)c3n2CC2CC2)nn2cc(C(=O)N3C[C@H](N)C[C@@H](F)C3)cc(F)c12 (mixture of isomers) [Example 421, ((3R,5R)-3-Amino-5-fluoropiperidin-1-yl)(2-(1-(cyclopropylmethyl)-7-(1-(3-hydroxy-3-(trifluoromethyl)cyclobutane-1-carbonyl)piperidin-4-yl)-1H-indol-2-yl)-4-fluoro-3-methylpyrazolo[1,5-a]pyridin-6-yl)methanone] | 80

The next lines start with the values.

IC50 [nM] | SMILES
40 | COc1cc(C(=O)N2CCC[C@@H](N)C2)cn2nc(-c3cc4cccc(C5CCN(C(=O)C6CC(O)(C(F)(F)F)C6)CC5)c4n3CC3CC3)c(C)c12 (mixture of isomers) [Example 398, (R)-(3-Aminopiperidin-1-yl)(2-(1-(cyclopropylmethyl)-7-(1-(3-hydroxy-3-(trifluoromethyl)cyclobutane-1-carbonyl)piperidin-4-yl)-1H-indol-2-yl)-4-methoxy-3-methylpyrazolo[1,5-a]pyridin-6-yl)methanone]
8250 | Cc1c(-c2cc3cccc(C4CCN(C(=O)C5CC(O)C5)CC4)c3n2CC2CC2)nn2cc(C(=O)N3C[C@H](N)C[C@@H](F)C3)cc(F)c12 (mixture of isomers) [Example 419, ((3R,5R)-3-Amino-5-fluoropiperidin-1-yl)(2-(1-(cyclopropylmethyl)-7-(1-(3-hydroxycyclobutane-1-carbonyl)piperidin-4-yl)-1H-indol-2-yl)-4-fluoro-3-methylpyrazolo[1,5-a]pyridin-6-yl)methanone]
290 | Cc1c(-c2cc3cccc(C4CCN(C(=O)C5CC(O)C5)CC4)c3n2CC2CC2)nn2cc(C(=O)N3CCC[C@@H](N)C3)cc(F)c12 (mixture of isomers) [Example 420, (R)-(3-Aminopiperidin-1-yl)(2-(1-(cyclopropylmethyl)-7-(1-(3-hydroxycyclobutane-1-carbonyl)piperidin-4-yl)-1H-indol-2-yl)-4-fluoro-3-methylpyrazolo[1,5-a]pyridin-6-yl)methanone]
400 | Cc1c(-c2cc3cccc(C4CCN(C(=O)C5CC(O)(C(F)(F)F)C5)CC4)c3n2CC2CC2)nn2cc(C(=O)N3CCC[C@@H](N)C3)cc(F)c12 (mixture of isomers) [Example 422, (R)-(3-Aminopiperidin-1-yl)(2-(1-(cyclopropylmethyl)-7-(1-(3-hydroxy-3-(trifluoromethyl)cyclobutane-1-carbonyl)piperidin-4-yl)-1H-indol-2-yl)-4-fluoro-3-methylpyrazolo[1,5-a]pyridin-6-yl)methanone]
30 | Cc1c(-c2cc3cccc(C4CCN(C(=O)C5CC(O)(C(F)(F)F)C5)CC4)c3n2CC2CC2)nn2cc(C(=O)N3CCC[C@@H](N)C3)ccc12 (mixture of isomers) [Example 456, (R)-(3-aminopiperidin-1-yl)(2-(1-(cyclopropylmethyl)-7-(1-(3-hydroxy-3-(trifluoromethyl)cyclobutane-1-carbonyl)piperidin-4-yl)-1H-indol-2-yl)-3-methylpyrazolo[1,5-a]pyridin-6-yl)methanone]
80 | Cc1c(-c2cc3cccc(C4CCN(C(=O)C5CCCCO5)CC4)c3n2CC2CC2)nn2cc(C(=O)N3C[C@H](N)C[C@@H](F)C3)ccc12 (mixture of isomers) [Example 458]
30 | Cc1c(-c2cc3cccc(C4CCN(C(=O)C5CCCO5)CC4)c3n2CC2CC2)nn2cc(C(=O)N3CCC[C@@H](N)C3)ccc12 (mixture of isomers) [Example 462, ((R)-3-aminopiperidin-1-yl)(2-(1-(cyclopropylmethyl)-7-(1-(tetrahydrofuran-2-carbonyl)piperidin-4-yl)-1H-indol-2-yl)-3-methylpyrazolo[1,5-a]pyridin-6-yl)methanone]
100 | Cc1c(-c2cc3cccc(C4CCN(C(=O)C5CCCO5)CC4)c3n2CC2CC2)nn2cc(C(=O)N3C[C@H](N)C[C@@H](F)C3)ccc12 (mixture of isomers) [Example 463, ((3R,5R)-3-amino-5-fluoropiperidin-1-yl)(2-(1-(cyclopropylmethyl)-7-(1-(tetrahydrofuran-2-carbonyl)piperidin-4-yl)-1H-indol-2-yl)-3-methylpyrazolo[1,5-a]pyridin-6-yl)methanone]
130 | Cc1c(-c2cc3cccc(C4CCN(C(=O)C5CC(O)C5)CC4)c3n2CC2CC2)nn2cc(C(=O)N3CCC[C@@H](N)C3)ccc12 (mixture of isomers) [Example 465, (R)-(3-aminopiperidin-1-yl)(2-(1-(cyclopropylmethyl)-7-(1-(3-hydroxycyclobutane-1-carbonyl)piperidin-4-yl)-1H-indol-2-yl)-3-methylpyrazolo[1,5-a]pyridin-6-yl)methanone]
190 | Cc1c(-c2cc3cccc(C4CCN(C(=O)C5CC(O)C5)CC4)c3n2CC2CC2)nn2cc(C(=O)N3C[C@H](N)C[C@@H](F)C3)ccc12 (mixture of isomers) [Example 466, ((3R,5R)-3-amino-5-fluoropiperidin-1-yl)(2-(1-(cyclopropylmethyl)-7-(1-(3-hydroxycyclobutane-1-carbonyl)piperidin-4-yl)-1H-indol-2-yl)-3-methylpyrazolo[1,5-a]pyridin-6-yl)methanone]
